Measured values published in patent publication US7589090B2, “Diaminopyrimidines as P2X3 and P2X2/3 modulators” (Roche Palo Alto LLC, priority 2007, dated 2009).

Assays:
[1] = Determination of pharmacokinetic parameters after oral gavage of prodrug; assay type: in vivo, dogs; conditions: plasma; prodrug dosed orally by gavage, dose equivalent to 0.127 mmol; hplc
Description: Groups of three dogs were used for each dose level of an experimental compound and one (1) non-cannulated dog was used as a vehicle control. Animals were allowed normal access to chow and water throughout the experiment. The prodrug N-[4-amino-5-(5-iodo-2-isopropyl-4-methoxy-phenoxy)-pyrimidin-2-yl]-2-dipropylamino-acetamide was formulated as an aqueous solution or an aqueous suspension and a dose equivalent to (0.127 mmol) was administered orally by gavage. A blood sample (0.3 mL) was collected from the […] at 0.5, 1, 2, 3, 4, 6 and 8 hours after via the jugular cannula. A sample of at least 0.3 mL of blood was withdrawn from the untreated animals 3 hours after dosing. After 24 hours from dosing, a blood sample was collected from all treated and control animals. Potassium oxalate/NaF was added to the samples which were stored on ice during sampling procedure. The samples were spun in a refrigerated centrifuge at −4° C. as soon as possible and the plasma samples were stored −20° C. immediately after centrifugation and later transferred to a −80° C. freezer until analysis. The concentration of the prodrug N-[4-amino-5-(5-iodo-2-isopropyl-4-methoxy-phenoxy)-pyrimidin-2-yl]-2-dipropylamino-acetamide and the parent compound 5-(5-Iodo-2-isopropyl-4-methoxy-phenoxy)-pyrimidine-2,4-diamine was determined by hplc.

[2] = target: T1, human P2X2/3 receptor (Homo sapiens, UniProt P56373+Q9UBL9); experiment: P2X2/3 FLIPR (Fluorometric Imaging Plate Reader) assay; assay type: cell-based; conditions: CHO-K1 cells transfected with human P2X2/3; agonist α,β-meATP 5 μM; FLIPR calcium fluorescence
T1 construct: expressed in transfected cells; host or cells: CHO-K1
T1 sequence (Q9UBL9 1-471): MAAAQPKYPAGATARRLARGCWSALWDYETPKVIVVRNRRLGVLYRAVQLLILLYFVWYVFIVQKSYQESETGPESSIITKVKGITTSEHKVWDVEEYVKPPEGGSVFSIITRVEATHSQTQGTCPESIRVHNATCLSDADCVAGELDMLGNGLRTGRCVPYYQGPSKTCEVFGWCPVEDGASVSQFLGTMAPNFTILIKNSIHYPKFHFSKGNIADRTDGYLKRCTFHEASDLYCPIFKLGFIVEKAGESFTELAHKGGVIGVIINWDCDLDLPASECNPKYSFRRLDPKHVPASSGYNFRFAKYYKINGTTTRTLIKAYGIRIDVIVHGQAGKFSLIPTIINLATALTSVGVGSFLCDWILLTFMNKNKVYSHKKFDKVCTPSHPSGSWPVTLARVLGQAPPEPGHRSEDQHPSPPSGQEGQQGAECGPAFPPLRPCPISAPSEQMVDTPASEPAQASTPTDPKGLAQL
T1 sequence (P56373 1-397): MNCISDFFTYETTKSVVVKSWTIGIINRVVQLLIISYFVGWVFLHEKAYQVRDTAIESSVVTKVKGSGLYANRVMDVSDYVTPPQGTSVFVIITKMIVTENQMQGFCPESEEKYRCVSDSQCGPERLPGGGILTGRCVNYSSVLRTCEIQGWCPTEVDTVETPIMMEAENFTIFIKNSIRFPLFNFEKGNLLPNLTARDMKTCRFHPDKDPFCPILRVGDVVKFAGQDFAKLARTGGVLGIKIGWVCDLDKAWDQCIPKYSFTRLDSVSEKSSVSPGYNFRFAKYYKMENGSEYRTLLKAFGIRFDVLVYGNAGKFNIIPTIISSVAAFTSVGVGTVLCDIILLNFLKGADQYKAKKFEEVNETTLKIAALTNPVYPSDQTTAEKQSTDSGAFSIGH
Description: (§1) CHO-K1 cells were transfected with cloned rat P2X3 or human P2X2/3 receptor subunits and passaged in flasks. 18-24 hours before the FLIPR experiment, cells were released from their flasks, centrifuged, and resuspended in nutrient medium at 2.5×10^5 cells/ml. The cells were aliquoted into black-walled 96-well plates at a density of 50,000 cells/well and incubated overnight in 5% CO2 at 37° C. On the day of the experiment, cells were washed in FLIPR buffer (calcium- and magnesium-free Hank's balanced salt solution, 10 mM HEPES, 2 mM CaCl2, 2.5 mM probenecid; FB). Each well received 100 μl FB and 100 μl of the fluorescent dye Fluo-3 AM [2 μM final conc.]. […]
(§2) Test compounds (dissolved in DMSO at 10 mM and serially diluted with FB) or vehicle were added to each well (25 μl of a 4× solution) and allowed to equilibrate for 20 minutes at room temperature. The plates were then placed in the FLIPR and a baseline fluorescence measurement (excitation at 488 nm and emission at 510-570 nm) was obtained for 10 seconds before a 100 μl/well agonist or vehicle addition. […] Fluorescence was measured for an additional 2 minutes at 1 second intervals after agonist addition. A final addition of ionomycin (5 μM, final concentration) was made to each well of the FLIPR test plate to establish cell viability and maximum fluorescence of dye-bound cytosolic calcium. […]

[3] = target: T2, rat P2X3 receptor (Rattus norvegicus, UniProt P49654); experiment: P2X3 FLIPR (Fluorometric Imaging Plate Reader) assay; assay type: cell-based; conditions: CHO-K1 cells transfected with rat P2X3; agonist α,β-meATP 1 μM; FLIPR calcium fluorescence
T2 construct: expressed in transfected cells; host or cells: CHO-K1
T2 sequence (P49654 1-397): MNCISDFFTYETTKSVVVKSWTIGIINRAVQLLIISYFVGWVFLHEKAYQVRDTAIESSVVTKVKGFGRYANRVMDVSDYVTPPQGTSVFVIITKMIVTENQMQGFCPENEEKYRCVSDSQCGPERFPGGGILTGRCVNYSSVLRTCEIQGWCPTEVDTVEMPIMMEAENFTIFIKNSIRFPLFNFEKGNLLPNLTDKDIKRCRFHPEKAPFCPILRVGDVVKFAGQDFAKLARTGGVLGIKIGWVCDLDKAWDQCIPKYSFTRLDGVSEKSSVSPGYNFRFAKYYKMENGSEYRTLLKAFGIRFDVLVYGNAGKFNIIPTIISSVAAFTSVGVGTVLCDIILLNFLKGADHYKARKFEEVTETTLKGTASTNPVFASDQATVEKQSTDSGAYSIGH
Description: as §1, §2

| melting point [°C] | AUC of the prodrug [1] [ng·h/mL] | Cmax of the prodrug [1] [ng/mL] | pIC50 for the P2X2/3 receptor [2] | pIC50 for the P2X3 receptor [3] | Compound |
| --- | --- | --- | --- | --- | --- |
| 129 to 131 | 21.1 | 15.2 | – | – | CCCN(CCC)CC(=O)Nc1ncc(Oc2cc(I)c(OC)cc2C(C)C)c(N)n1 [Compound 2, N-[4-Amino-5-(5-iodo-2-isopropyl-4-methoxy-phenoxy)-pyrimidin-2-yl]-2-dipropylamino-acetamide] |
| 176.5 to 178 | – | – | – | – | COc1cc(C(C)C)c(Oc2cnc(NC(=O)CNC3CCCC3)nc2N)cc1I [Compound 3, N-[4-Amino-5-(5-iodo-2-isopropyl-4-methoxy-phenoxy)-pyrimidin-2-yl]-2-cyclopentylamino-acetamide] |
| – | – | – | ~7.4 | approximately 7.8 | COc1cc(C(C)C)c(Oc2cnc(NC(=O)C(C)C)nc2N)cc1I [N-[4-Amino-5-(5-iodo-2-isopropyl-4-methoxy-phenoxy) -pyrimidin-2-yl]-isobutyramide] |
